What was measured:
human EphA2 protein = human EphA2 protein (Homo sapiens, UniProt P29317); experiment: EphA2 Biacore (SPR) binding assay; conditions: biotinylated human EphA2, 25° C.
Procedure: Biacore experiments were performed to determine ka (M^−1s^−1), kd (s^−1), KD (nM) values of heterotandem peptides binding to human EphA2 protein.
EphA2 were biotinylated with EZ-Link™ Sulfo-NHS-LC-Biotin for 1 hour in 4 mM sodium acetate, 100 mM NaCl, pH 5.4 with a 3× molar excess of biotin over protein. The degree of labelling was determined using a Fluorescence Biotin Quantification Kit (Thermo) after dialysis of the reaction mixture into PBS. For analysis of peptide binding, a Biacore T200 instrument was used with a XanTec CMD500D chip. Streptavidin was immobilized on the chip using standard amine-coupling chemistry at 25° C. with HBS-N (10 mM HEPES, 0.15 M NaCl, pH 7.4) as the running buffer. Briefly, the carboxymethyl dextran surface was activated with a 7 min injection of a 1:1 ratio of 0.4 M 1-ethyl-3-(3-dimethylaminopropyl) carbodiimide hydrochloride (EDC)/0.1 M N-hydroxy succinimide (NHS) at a flow rate of 10 it/min. For capture of streptavidin, the protein was diluted to 0.2 mg/ml in 10 mM sodium acetate (pH 4.5) and captured by injecting 120 μl onto the activated chip surface. Residual activated groups were blocked with a 7 min injection of 1 M ethanolamine (pH 8.5):HBS-N (1:1). Buffer was changed to PBS/0.05% Tween 20 and biotinylated EphA2 was captured to a level of 500-1500 RU using a dilution of protein to 0.2 μM in buffer. A dilution series of the peptides was prepared in this buffer with a final DMSO concentration of 0.5% with a top peptide concentration was 50 or 100 nM and 6 further 2-fold dilutions. The SPR analysis was run at 25° C. at a flow rate of 90 μl/min with 60 seconds association and 900-1200 seconds dissociation. Data were corrected for DMSO excluded volume effects. All data were double-referenced for blank injections and reference surface using standard processing procedures and data processing and kinetic fitting were performed using Scrubber software, version 2.0c (BioLogic Software). Data were fitted using simple 1:1 binding model allowing for mass transport effects where appropriate.

CD137 [1] = molecular target: T1, CD137 (Homo sapiens, UniProt Q07011); experiment: CD137 reporter assay, co-culture with EphA2 tumour cells; assay type: cell-based; design: host or cells: Jurkat reporter cells; conditions: tumour target EphA2, co-culture with SC-OV-3, 6 h
T1 sequence (Q07011 24-255): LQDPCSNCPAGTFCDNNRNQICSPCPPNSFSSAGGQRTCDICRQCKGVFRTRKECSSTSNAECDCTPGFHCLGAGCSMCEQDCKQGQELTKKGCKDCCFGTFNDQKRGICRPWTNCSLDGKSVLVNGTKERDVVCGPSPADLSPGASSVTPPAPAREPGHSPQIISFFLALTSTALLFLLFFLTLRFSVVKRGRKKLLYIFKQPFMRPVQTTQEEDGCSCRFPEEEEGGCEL
Procedure, shortened: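 Jurkat CD137 reporter cells co-cultured with tumour cells and serially diluted test articles in RPMI-1640 + 1% FBS, 6 h at 37 °C, 5% CO2. Luminescence read after Bio-Glo; fold change over cells-only background fitted log(agonist) vs response for EC50 (nM) and maximal fold induction.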

CD137 [2] = molecular target: T1, CD137; experiment: CD137 Biacore (SPR) binding assay; design: purchased R&D systems; conditions: biotinylated human CD137, 25° C.
Procedure: Biacore experiments were performed to determine ka (M^−1s^−1), kd (s^−1), KD (nM) values of heterotandem peptides binding to human CD137 protein. […] The protein was desalted to remove uncoupled biotin using spin columns into PBS.
For analysis of peptide binding, a Biacore T200 or a Biacore 3000 instrument was used with a XanTec CMD500D chip. Streptavidin was immobilized on the chip using standard amine-coupling chemistry at 25° C. with HBS-N (10 mM HEPES, 0.15 M NaCl, pH 7.4) as the running buffer. Briefly, the carboxymethyl dextran surface was activated with a 7 min injection of a 1:1 ratio of 0.4 M 1-ethyl-3-(3-dimethylaminopropyl) carbodiimide hydrochloride (EDC)/0.1 M N-hydroxy succinimide (NHS) at a flow rate of 10 μl/min. For capture of streptavidin, the protein was diluted to 0.2 mg/ml in 10 mM sodium acetate (pH 4.5) and captured by injecting 120 μl of onto the activated chip surface. Residual activated groups were blocked with a 7 min injection of 1 M ethanolamine (pH 8.5) and biotinylated CD137 captured to a level of 270-1500 RU. Buffer was changed to PBS/0.05% Tween 20 and a dilution series of the peptides was prepared in this buffer with a final DMSO concentration of 0.5%. The top peptide concentration was 500 nM with 6 further 2-fold or 3-fold dilutions. The SPR analysis was run at 25° C. at a flow rate of 90 μl/min with 60 seconds association and 900 seconds dissociation. After each cycle a regeneration step (10 μl of 10 mM glycine pH 2) was employed. Data were corrected for DMSO excluded volume effects as needed. All data were double-referenced for blank injections and reference surface using standard processing procedures and data processing and kinetic fitting were performed using Scrubber software, version 2.0c (BioLogic Software). Data were fitted using simple 1:1 binding model allowing for mass transport effects where appropriate.

Chain of human EphA2 protein (P29317 24-976): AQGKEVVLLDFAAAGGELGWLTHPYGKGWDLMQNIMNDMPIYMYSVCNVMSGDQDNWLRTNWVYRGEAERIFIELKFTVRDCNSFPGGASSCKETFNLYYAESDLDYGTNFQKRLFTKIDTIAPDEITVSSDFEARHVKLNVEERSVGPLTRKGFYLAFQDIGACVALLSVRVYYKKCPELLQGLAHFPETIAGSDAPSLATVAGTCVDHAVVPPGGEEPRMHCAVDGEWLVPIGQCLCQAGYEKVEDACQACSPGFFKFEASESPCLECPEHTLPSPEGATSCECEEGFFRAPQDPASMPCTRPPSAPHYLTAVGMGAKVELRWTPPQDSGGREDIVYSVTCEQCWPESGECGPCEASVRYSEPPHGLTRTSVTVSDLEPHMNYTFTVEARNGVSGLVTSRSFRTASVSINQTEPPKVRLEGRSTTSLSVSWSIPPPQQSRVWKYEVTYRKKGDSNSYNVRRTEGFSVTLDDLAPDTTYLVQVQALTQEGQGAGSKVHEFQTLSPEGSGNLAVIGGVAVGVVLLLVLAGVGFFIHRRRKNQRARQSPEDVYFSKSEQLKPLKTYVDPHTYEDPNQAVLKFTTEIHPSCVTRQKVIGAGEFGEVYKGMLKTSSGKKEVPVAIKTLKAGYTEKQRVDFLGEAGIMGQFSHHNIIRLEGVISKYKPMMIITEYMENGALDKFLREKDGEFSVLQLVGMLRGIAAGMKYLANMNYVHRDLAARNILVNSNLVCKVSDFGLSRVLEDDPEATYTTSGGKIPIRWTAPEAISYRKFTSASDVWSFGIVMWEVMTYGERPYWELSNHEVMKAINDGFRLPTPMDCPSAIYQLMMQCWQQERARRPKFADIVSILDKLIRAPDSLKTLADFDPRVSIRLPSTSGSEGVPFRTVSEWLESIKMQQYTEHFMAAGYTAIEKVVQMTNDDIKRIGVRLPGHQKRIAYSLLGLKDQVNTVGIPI

Compound | Kd (human EphA2 protein) [nM] | EC50 (CD137 [1]) [nM] | Fold Induction over Background (CD137 [1]) [fold] | Kd (CD137 [2]) [nM]
CCCC[C@@H]1NC(=O)[C@H](Cc2ccc(O)cc2)NC(=O)[C@@H]2CCCN2C(=O)[C@H](CC(=O)O)NC(=O)[C@H](C)NC(=O)[C@H](Cc2ccccc2)NC(=O)[C@@H]2CSCCC(=O)N3CN(CN(C3)C(=O)CCSC[C@@H](C(=O)N[C@@H](CNC(=O)CCc3cn(CCCNC(=O)CN(C)C(=O)CN(C)C(=O)CN(C)C(=O)CN(C)C(=O)CN(C)C(=O)CN(C)C(=O)CN(C)C(=O)CN(C)C(=O)CN(C)C(=O)CN(C)C(=O)COCCOCCOCCOCCOCCOCCOCCOCCOCCOCCNC(=O)NCCC(=O)N(C)CC(=O)N(C)CC(=O)N(C)CC(=O)N(C)CC(=O)N(C)CC(=O)N(C)CC(=O)N(C)CC(=O)N(C)CC(=O)N(C)CC(=O)N(C)CC(=O)N[C@@H](C)C(=O)N[C@@H](CCCCNC(=N)N)C(=O)N[C@@H](CC(=O)O)C(=O)N[C@H]4CSCCC(=O)N5CN6CN(C5)C(=O)CCSC[C@H](NC(=O)[C@H](CC(C)C)NC(=O)[C@@H]5CCCN5C(=O)[C@H](CC(N)=O)NC(=O)[C@H](C(C)C)NC(=O)[C@H](CC(C)C)NC(=O)[C@@H]5C[C@@H](O)CN5C4=O)C(=O)N[C@@H](CC(C)C)C(=O)N[C@@H](Cc4c[nH]cn4)C(=O)N4CCC[C@H]4C(=O)N[C@H](CC(=O)O)C(=O)N[C@@H](Cc4c[nH]c5ccccc45)C(=O)N[C@@H](CCCCNC(=N)N)C(=O)N[C@H](C(N)=O)CSCCC6=O)nn3)C(N)=O)NC1=O)C(=O)CCSC[C@H](NC(=O)[C@H](C)NC(C)=O)C(=O)N[C@@H]([C@@H](C)CC)C(=O)N[C@@H](CCC(=O)O)C(=O)N[C@@H](CCC(=O)O)C(=O)NCC(=O)N[C@@H](CCC(N)=O)C(=O)N[C@@H](Cc1ccc(O)cc1)C(=O)N2 [BCY9656] | 0.75 | 1.1 | 3 | 159
CCCC[C@@H]1NC(=O)[C@H](Cc2ccc(O)cc2)NC(=O)[C@@H]2CCCN2C(=O)[C@H](CC(=O)O)NC(=O)[C@H](C)NC(=O)[C@H](Cc2ccccc2)NC(=O)[C@@H]2CSCCC(=O)N3CN(CN(C3)C(=O)CCSC[C@@H](C(=O)N[C@@H](CNC(=O)CCc3cn(CCOCCOCCOCCOCCOCCNC(=O)NCCC(=O)N(C)CC(=O)N(C)CC(=O)N(C)CC(=O)N(C)CC(=O)N(C)CC(=O)N(C)CC(=O)N(C)CC(=O)N(C)CC(=O)N(C)CC(=O)N(C)CC(=O)N[C@@H](C)C(=O)N[C@@H](CCCCNC(=N)N)C(=O)N[C@@H](CC(=O)O)C(=O)N[C@H]4CSCCC(=O)N5CN6CN(C5)C(=O)CCSC[C@H](NC(=O)[C@H](CC(C)C)NC(=O)[C@@H]5CCCN5C(=O)[C@H](CC(N)=O)NC(=O)[C@H](C(C)C)NC(=O)[C@H](CC(C)C)NC(=O)[C@@H]5C[C@@H](O)CN5C4=O)C(=O)N[C@@H](CC(C)C)C(=O)N[C@@H](Cc4c[nH]cn4)C(=O)N4CCC[C@H]4C(=O)N[C@H](CC(=O)O)C(=O)N[C@@H](Cc4c[nH]c5ccccc45)C(=O)N[C@@H](CCCCNC(=N)N)C(=O)N[C@H](C(N)=O)CSCCC6=O)nn3)C(N)=O)NC1=O)C(=O)CCSC[C@H](NC(=O)[C@H](C)NC(C)=O)C(=O)N[C@@H]([C@@H](C)CC)C(=O)N[C@@H](CCC(=O)O)C(=O)N[C@@H](CCC(=O)O)C(=O)NCC(=O)N[C@@H](CCC(N)=O)C(=O)N[C@@H](Cc1ccc(O)cc1)C(=O)N2 [BCY9659] | 1.03 | 9.9 | 7 | 88.1
CCCC[C@@H]1NC(=O)[C@H](Cc2ccc(O)cc2)NC(=O)[C@@H]2CCCN2C(=O)[C@H](CC(=O)O)NC(=O)[C@H](C)NC(=O)[C@H](Cc2ccccc2)NC(=O)[C@@H]2CSCCC(=O)N3CN(CN(C3)C(=O)CCSC[C@@H](C(=O)N[C@@H](CNC(=O)CCc3cn(CCCNC(=O)CN(C)C(=O)CN(C)C(=O)CN(C)C(=O)CN(C)C(=O)CN(C)C(=O)COCCOCCOCCOCCOCCNC(=O)NCCC(=O)N(C)CC(=O)N(C)CC(=O)N(C)CC(=O)N(C)CC(=O)N(C)CC(=O)N(C)CC(=O)N(C)CC(=O)N(C)CC(=O)N(C)CC(=O)N(C)CC(=O)N[C@@H](C)C(=O)N[C@@H](CCCCNC(=N)N)C(=O)N[C@@H](CC(=O)O)C(=O)N[C@H]4CSCCC(=O)N5CN6CN(C5)C(=O)CCSC[C@H](NC(=O)[C@H](CC(C)C)NC(=O)[C@@H]5CCCN5C(=O)[C@H](CC(N)=O)NC(=O)[C@H](C(C)C)NC(=O)[C@H](CC(C)C)NC(=O)[C@@H]5C[C@@H](O)CN5C4=O)C(=O)N[C@@H](CC(C)C)C(=O)N[C@@H](Cc4c[nH]cn4)C(=O)N4CCC[C@H]4C(=O)N[C@H](CC(=O)O)C(=O)N[C@@H](Cc4c[nH]c5ccccc45)C(=O)N[C@@H](CCCCNC(=N)N)C(=O)N[C@H](C(N)=O)CSCCC6=O)nn3)C(N)=O)NC1=O)C(=O)CCSC[C@H](NC(=O)[C@H](C)NC(C)=O)C(=O)N[C@@H]([C@@H](C)CC)C(=O)N[C@@H](CCC(=O)O)C(=O)N[C@@H](CCC(=O)O)C(=O)NCC(=O)N[C@@H](CCC(N)=O)C(=O)N[C@@H](Cc1ccc(O)cc1)C(=O)N2 [BCY9658] | 1.9 | 6.2 | 11 | 152
CCCC[C@@H]1NC(=O)[C@H](Cc2ccc(O)cc2)NC(=O)[C@@H]2CCCN2C(=O)[C@H](CC(=O)O)NC(=O)[C@H](C)NC(=O)[C@H](Cc2ccccc2)NC(=O)[C@@H]2CSCCC(=O)N3CN(CN(C3)C(=O)CCSC[C@@H](C(=O)N[C@@H](CNC(=O)CCc3cn(CCCNC(=O)CN(C)C(=O)CN(C)C(=O)CN(C)C(=O)CN(C)C(=O)CN(C)C(=O)CCOCCOCCOCCOCCOCCOCCOCCOCCOCCOCCOCCOCCOCCOCCOCCNC(=O)NCCC(=O)N(C)CC(=O)N(C)CC(=O)N(C)CC(=O)N(C)CC(=O)N(C)CC(=O)N(C)CC(=O)N(C)CC(=O)N(C)CC(=O)N(C)CC(=O)N(C)CC(=O)N[C@@H](C)C(=O)N[C@@H](CCCCNC(=N)N)C(=O)N[C@@H](CC(=O)O)C(=O)N[C@H]4CSCCC(=O)N5CN6CN(C5)C(=O)CCSC[C@H](NC(=O)[C@H](CC(C)C)NC(=O)[C@@H]5CCCN5C(=O)[C@H](CC(N)=O)NC(=O)[C@H](C(C)C)NC(=O)[C@H](CC(C)C)NC(=O)[C@@H]5C[C@@H](O)CN5C4=O)C(=O)N[C@@H](CC(C)C)C(=O)N[C@@H](Cc4c[nH]cn4)C(=O)N4CCC[C@H]4C(=O)N[C@H](CC(=O)O)C(=O)N[C@@H](Cc4c[nH]c5ccccc45)C(=O)N[C@@H](CCCCNC(=N)N)C(=O)N[C@H](C(N)=O)CSCCC6=O)nn3)C(N)=O)NC1=O)C(=O)CCSC[C@H](NC(=O)[C@H](C)NC(C)=O)C(=O)N[C@@H]([C@@H](C)CC)C(=O)N[C@@H](CCC(=O)O)C(=O)N[C@@H](CCC(=O)O)C(=O)NCC(=O)N[C@@H](CCC(N)=O)C(=O)N[C@@H](Cc1ccc(O)cc1)C(=O)N2 [BCY9655] | 1.33 | 4.1 | 6 | 199
